Laboratory results published in PMC10891162 (Scientific Reports, 2024).

Tests used:
β-Adrenergic receptor = assay: cAMP detection in A375 cells, endogenous β-Adrenergic receptor; format: cell-based; settings: Fig. 5C, n = 3; for Change of cAMP levels, β-Adrenergic agonist: 5 min treatment; for Change of cAMP levels, β-Adrenergic antagonist: in the presence of 50 nM Isopreterenol
Experimental: (§1) Media was removed from wells and 5µL of the diluted compounds were added to each well. […] Plates were mixed on an orbital shaker for 5 min at 400 rpm. […] 5µL of 2% trichloroacetic acid (TCA, Fisher Scientific SA9410-500) in water were added to wells to terminate reactions and lyse cells. […] Plates were mixed on an orbital shaker for 5 min at 400 rpm. […] Plates were mixed on an orbital shaker for 5 min at 400 rpm then incubated for 30 min at room temperature. […] Luminescence signal was measured on a GloMax Discover Microplate Reader within 15 min.
(§2) The assays were conducted by treatment of cells followed by lysis with 2% TCA, which also terminates the reactions. Cell lysates were then incubated with antibodies and tracer diluted in 0.3 M Tris buffer (pH 9.0; for neutralization) for 30 min after which time the detection reagent was added.

Adenosine receptor = assay: cAMP detection in A375 cells, endogenous Adenosine receptor; format: cell-based; settings: 1 h treatment, Fig. 5D, n = 3
Experimental: as §1, §2

Dopamine D1 = Dopamine D1 (Homo sapiens, UniProt P21728); assay: cAMP detection in HEK293 cells stably transfected with DRD1; format: cell-based; settings: n = 3
Dopamine D1, sequence (P21728 whole entry): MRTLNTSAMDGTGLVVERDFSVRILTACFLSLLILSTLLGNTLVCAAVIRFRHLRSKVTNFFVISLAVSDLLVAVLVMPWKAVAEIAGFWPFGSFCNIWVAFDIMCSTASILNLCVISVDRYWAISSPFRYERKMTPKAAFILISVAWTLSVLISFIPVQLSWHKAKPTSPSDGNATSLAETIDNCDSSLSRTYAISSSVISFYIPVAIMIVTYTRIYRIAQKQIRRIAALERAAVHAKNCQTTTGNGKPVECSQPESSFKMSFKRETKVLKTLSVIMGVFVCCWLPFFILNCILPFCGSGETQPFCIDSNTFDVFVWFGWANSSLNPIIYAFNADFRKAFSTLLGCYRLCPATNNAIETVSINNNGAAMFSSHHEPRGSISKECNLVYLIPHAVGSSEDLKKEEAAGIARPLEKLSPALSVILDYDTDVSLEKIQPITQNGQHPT
Experimental: as §1, §2

HEK293 cells = assay: cAMP detection in HEK293 cells treated with Forskolin; format: cell-based; settings: 30 min treatment, Fig. 5D, n = 3
Experimental: as §1, §2

PDE4A1A = target: T1, PDE4A1A (Homo sapiens, UniProt P27815); assay: PDE4 inhibition study (cAMP Lumit detection); format: biochemical; settings: 20 ng PDE4A1A per reaction, 10 µM cAMP, n = 2, Fig. 4
T1 construct: purchased BPS Biosciences 60040
T1 sequence (P27815 1-647 isoform P27815-4): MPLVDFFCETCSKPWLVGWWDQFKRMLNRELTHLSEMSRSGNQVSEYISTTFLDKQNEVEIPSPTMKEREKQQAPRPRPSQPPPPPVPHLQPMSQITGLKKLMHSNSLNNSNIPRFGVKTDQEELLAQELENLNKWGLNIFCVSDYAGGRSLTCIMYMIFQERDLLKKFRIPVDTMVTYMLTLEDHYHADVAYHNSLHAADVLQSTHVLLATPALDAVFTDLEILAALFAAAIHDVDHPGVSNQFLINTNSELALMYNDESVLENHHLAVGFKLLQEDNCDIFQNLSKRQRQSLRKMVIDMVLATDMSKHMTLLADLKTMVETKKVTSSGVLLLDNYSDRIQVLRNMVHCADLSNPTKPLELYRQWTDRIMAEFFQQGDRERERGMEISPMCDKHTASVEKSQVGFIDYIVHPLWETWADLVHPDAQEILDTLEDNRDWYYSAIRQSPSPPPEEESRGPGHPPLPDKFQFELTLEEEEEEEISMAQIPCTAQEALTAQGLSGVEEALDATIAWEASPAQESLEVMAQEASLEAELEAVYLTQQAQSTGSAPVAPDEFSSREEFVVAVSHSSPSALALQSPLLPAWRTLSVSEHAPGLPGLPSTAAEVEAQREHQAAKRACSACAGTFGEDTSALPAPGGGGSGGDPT
Experimental: Plates were mixed on an orbital shaker for 5 min at 400 rpm.

[1] = test system: Anti-cAMP primary antibody (GenScript A01509); assay: cAMP Lumit immunoassay: cAMP standard curve, specificity and competition testing; format: binding; settings: n = 2; for Luminescence signal drop on titration instead of cAMP (specificity): concentrations up to 10 µM, Fig. 2C,D; for Interference with cAMP standard curve: metabolite included at 10 µM in cAMP titration, Fig. 2E,F

Q: With CNC[C@H](O)c1ccc(O)c(O)c1 [Epinephrine] as the compound, how does the “Change of cAMP levels, β-Adrenergic agonist” value (β-Adrenergic receptor) read?
A: cAMP levels increase

Q: Which “Change of cAMP levels, Adenosine receptor agonist” value (Adenosine receptor) does the source give for CCNC(=O)[C@H]1O[C@@H](n2cnc3c(N)ncnc32)[C@H](O)[C@@H]1O [NECA] here?
A: cAMP levels increase

Q: Which “Change of cAMP levels, DRD1 agonist” value (Dopamine D1; HEK293 stably transfected with DRD1, 1 h treatment, Fig. 5A) does the source give for Oc1cc2c(cc1O)C(c1ccccc1)CNCC2 (stereo not drawn) [SKF38393] here?
A: cAMP levels increase

Q: C=C[C@@]1(C)CC(=O)[C@]2(O)[C@@]3(C)[C@@H](O)CCC(C)(C)[C@@H]3[C@H](O)[C@H](OC(C)=O)[C@@]2(C)O1 [Forskolin] was tested. Which “Change of cAMP levels” value (HEK293 cells) did it give?
A: cAMP levels increase

Q: How did the “Change of cAMP levels, β-Adrenergic antagonist” value (β-Adrenergic receptor) turn out when CC(C)NCC(O)COc1cccc2ccccc12 (stereo not drawn) [Propranolol] was run?
A: cAMP levels reduction

Q: How did the IC50 (PDE4A1A) turn out when CCOc1ccccc1C(=O)NCc1coc(-c2ccc(OC(F)F)c(OC(C)C)c2)n1 [Difamilast] was run?
A: 7.3 nM

Q: How did the “Luminescence signal drop on titration instead of cAMP (specificity)” value [1] turn out when Nc1nc2c(ncn2[C@@H]2O[C@@H]3COP(=O)(O)O[C@H]4[C@@H](O)[C@H](n5cnc6c(N)ncnc65)O[C@@H]4COP(=O)(O)O[C@H]3[C@H]2O)c(=O)[nH]1 [3′3′-cGAMP, 3′3′-cyclic guanosine monophosphate-adenosine monophosphate] was run?
A: None of the tested metabolites resulted in a significant luminescence signal drop

Q: And the “Interference with cAMP standard curve” value [1]?
A: no effect

Q: For CN1CCc2cc(Cl)c(O)cc2[C@@H](c2ccccc2)C1 [SCH23390], which “Change of cAMP levels, DRD1 antagonist” value (Dopamine D1; HEK293 stably transfected with DRD1, in the presence of 100 nM SKF38393, Fig. 5A) is on record?
A: cAMP levels reduction

Q: CC(C)NCC(O)c1ccc(O)c(O)c1 (stereo not drawn) [Isopreterenol, Isoproterenol] was tested. Which “Change of cAMP levels, β-Adrenergic agonist” value (β-Adrenergic receptor) did it give?
A: cAMP levels increase

Q: Which “Luminescence signal drop on titration instead of cAMP (specificity)” value [1] does the source give for Nc1nc2c(ncn2[C@@H]2O[C@@H]3COP(=O)(O)O[C@H]4[C@@H](O)[C@H](n5cnc6c(N)ncnc65)O[C@@H]4COP(=O)(O)O[C@@H]2[C@@H]3O)c(=O)[nH]1 [2′3′-cGAMP, 2′3′-cyclic guanosine monophosphate-adenosine monophosphate] here?
A: None of the tested metabolites resulted in a significant luminescence signal drop

Q: And the “Interference with cAMP standard curve” value [1]?
A: no effect

Q: For C=CCc1ccccc1OCC(O)CNC(C)C (stereo not drawn) [Alprenolol], which “Change of cAMP levels, β-Adrenergic antagonist” value (β-Adrenergic receptor) is on record?
A: cAMP levels reduction

Q: Which results are given for Nc1nc2c(ncn2[C@@H]2O[C@@H]3COP(=O)(O)O[C@H]3[C@H]2O)c(=O)[nH]1 [cGMP, cyclic guanosine monophosphate]?
A: Luminescence signal drop on titration instead of cAMP (specificity) [1]: None of the tested metabolites resulted in a significant luminescence signal drop; Interference with cAMP standard curve [1]: no effect
